Results on 26 compounds are retold here after patent US9085598B2, “Compounds targeting the cell invasion protein complex, their pharmaceutical compositions and methods of use thereof” (THE ROYAL INSTITUTE FOR THE ADVANCEMENT OF LEARNING/MCGILL …, priority 2011, dated 2015).

One assay addresses T1, FAK (Homo sapiens, UniProt Q05397).
T1 construct: Human recombinant full-length kinases were incubated in kinase buffer
Kind of assay: In vitro kinase activity (Kinase-Glo luminescence). The assay is classed as biochemical. As to conditions: for FAK inhibition (% at 1 μM): Table 1; for inhibition at 1 µM: read-out: FAK inhibition (% at 1 μM). As to the method:
Human recombinant full-length kinases were incubated in kinase buffer containing ATP and substrate (Poly Glu:Tyr) for 4 hours at room temperature with or without the presence of the compounds listed in Table 1 at various concentrations. Remaining ATP in solution was then quantified using the Kinase-Glo-Iuminescence™ kit (Promega).
On the technique in general: In Kinase-Glo more light means more ATP remaining.

The next assay deals with MDA-231 cells. In words: Inhibition of cell proliferation, MTT metabolic assay. As to conditions: 96 hours continuous treatment, read-out: MDA231- IC50. The assay is classed as cell-based. As to the method: Exponentially growing DU145 or MDA-231 cells (1×10^3 cells) were seeded in 96-well plates. The final concentration of DMSO was less than 0.05%. After 96 hours, the cell survival was evaluated using 3-(4,5-dimethylthiazo-2-yl)-2,5-diphenyltetrazolium bromide (MTT) metabolic assay.
On the technique in general: Tetrazolium dyes change colour on reduction, which living cells bring about.

The next assay has as its system DU145 cells. The assay is described as above. The assay is classed as cell-based. As to the method:
Exponentially growing DU145 or MDA-231 cells (1×10^3 cells) were seeded in 96-well plates. The final concentration of DMSO was less than 0.05%. After 96 hours, the cell survival was evaluated using 3-(4,5-dimethylthiazo-2-yl)-2,5-diphenyltetrazolium bromide (MTT) metabolic assay. The inhibitory activity (IC50) of the compounds on MDA-231 and DU145 cell proliferation was determined. The results are presented in Table 1 for a representative number of compounds.

The mark [1] stands for this setting: Homo sapiens, MDA-MB-231, MDA-231 cell proliferation.
The mark [2] stands for this setting: Homo sapiens, DU-145, 96 hours continuous treatment.

Where two headings read alike, the source gives them in different places.

T1 sequence (Q05397 whole entry): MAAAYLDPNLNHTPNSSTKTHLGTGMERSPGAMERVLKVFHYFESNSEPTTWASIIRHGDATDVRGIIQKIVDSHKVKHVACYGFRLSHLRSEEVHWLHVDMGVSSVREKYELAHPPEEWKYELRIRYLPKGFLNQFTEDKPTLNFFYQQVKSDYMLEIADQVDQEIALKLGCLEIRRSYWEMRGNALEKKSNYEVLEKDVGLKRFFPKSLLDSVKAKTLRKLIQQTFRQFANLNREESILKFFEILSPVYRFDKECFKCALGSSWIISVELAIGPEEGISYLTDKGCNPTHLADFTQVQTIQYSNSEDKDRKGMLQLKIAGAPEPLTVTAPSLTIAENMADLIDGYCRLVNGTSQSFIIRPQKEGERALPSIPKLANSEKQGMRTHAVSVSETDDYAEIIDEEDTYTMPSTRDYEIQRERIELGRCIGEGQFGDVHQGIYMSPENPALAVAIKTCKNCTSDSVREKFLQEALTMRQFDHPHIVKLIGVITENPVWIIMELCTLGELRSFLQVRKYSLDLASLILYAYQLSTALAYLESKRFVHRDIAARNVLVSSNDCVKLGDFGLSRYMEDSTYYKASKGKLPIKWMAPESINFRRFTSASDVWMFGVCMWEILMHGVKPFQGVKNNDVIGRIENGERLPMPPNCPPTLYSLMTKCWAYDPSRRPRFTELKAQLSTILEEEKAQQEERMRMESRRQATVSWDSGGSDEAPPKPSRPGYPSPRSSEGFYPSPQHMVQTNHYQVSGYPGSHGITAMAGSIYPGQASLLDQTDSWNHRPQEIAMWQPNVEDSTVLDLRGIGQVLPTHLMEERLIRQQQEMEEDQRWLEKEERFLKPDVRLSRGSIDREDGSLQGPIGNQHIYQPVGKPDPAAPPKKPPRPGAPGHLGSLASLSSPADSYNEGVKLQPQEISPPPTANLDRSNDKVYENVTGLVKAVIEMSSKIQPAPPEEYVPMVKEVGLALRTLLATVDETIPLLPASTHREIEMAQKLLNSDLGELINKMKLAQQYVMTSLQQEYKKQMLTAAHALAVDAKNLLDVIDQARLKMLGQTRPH

Usually IC50 stands for the concentration needed to halve the response being measured. For “2-(4-(2,3,4,6-tetra-O-acetyl-β-D-glucopyranosyl)phenzyl)-1,2-benzisoselenazol-3(2H)-one [Compound 8]”, the “FAK inhibition (% at 1 μM)” value on FAK was 12%. Also, the results for the IC50 in the assay on MDA-231 cells (MDA-231 cell proliferation) and in the assay with DU145 cells (96 hours continuous treatment) were 24.6 µM and 33.7 µM, respectively.

As for “2-(4-(β-D-glucopyranosyl)phenzyl)-1,2-benzisoselenazol-3(2H)-one [Compound 9]”, at FAK, the “FAK inhibition (% at 1 μM)” value was found to be 4%. Further, the figures for the IC50 in the assay with MDA-231 cells (MDA-231 cell proliferation) and with DU145 cells (96 hours continuous treatment) were 380 µM and 277 µM, respectively.

With `CC(=O)OC[C@H]1O[C@@H](n2[se]c3ccccc3c2=O)[C@H](OC(C)=O)[C@@H](OC(C)=O)[C@H]1OC(C)=O` [Compound 2, 2-(1-deoxy-2,3,4,6-tetra-O-acetyl-β-D-galactopyranosyl)-1,2-benzisoselenazol-3(2H)-one], the values for the 50% inhibitory concentration (IC50) in the assay on MDA-231 cells (MDA-231 cell proliferation) and in the assay with DU145 cells (96 hours continuous treatment) were over 100 µM and 224 µM, respectively.

As for `O=c1c2ccccc2[se]n1[C@@H]1O[C@H](CO)[C@H](O)[C@H](O)[C@H]1O` [Compound 3, 2-(1-deoxy-β-D-galactopyranosyl)-1,2-benzisoselenazol-3(2H)-one], the IC50 in the assay on MDA-231 cells (MDA-231 cell proliferation) turned out to be 21 µM; in the assay on DU145 cells (96 hours continuous treatment), 24.3 µM.

Regarding `O=c1c2ccccc2[se]n1[C@@H]1O[C@H](CO)[C@@H](O[C@@H]2O[C@H](CO)[C@H](O)[C@H](O)[C@H]2O)[C@H](O)[C@H]1O` [Compound 5, 2-(1-deoxy-β-D-lactosyl)-1,2-benzisoselenazol-3(2H)-one], the figures for the half-maximal inhibitory concentration (IC50) with MDA-231 cells (MDA-231 cell proliferation) and in the assay with DU145 cells (96 hours continuous treatment) were 18.1 µM and 24.6 µM, respectively.

As to `CC(=O)OC[C@H]1O[C@@H](NC(=O)Cn2[se]c3ccccc3c2=O)[C@H](OC(C)=O)[C@@H](OC(C)=O)[C@@H]1OC(C)=O` [Compound 6, 2-(3-oxo-1,2-benzisoselenazol-2(3H)-yl)-N-(1-deoxy-2,3,4,6-tetra-O-acetyl-β-D-glucopyranosyl)-acetamide], the IC50 with MDA-231 cells (MDA-231 cell proliferation) amounted to 275 µM; with DU145 cells (96 hours continuous treatment) it was 145 µM.

Take `O=C(Cn1[se]c2ccccc2c1=O)N[C@@H]1O[C@H](CO)[C@@H](O)[C@H](O)[C@H]1O` [Compound 7, 2-(3-oxo-1,2-benzisoselenazol-2(3H)-yl)-N-(1-deoxy-β-D-glucopyranosyl)-acetamide]: at FAK, the “FAK inhibition (% at 1 μM)” value worked out at 8%. The IC50 in the assay with MDA-231 cells (MDA-231 cell proliferation) turned out to be 52 µM; in the assay on DU145 cells (96 hours continuous treatment) it was 40.3 µM.

Usually inhibition stands for how much of the control response was suppressed. As for `O=C(CCCn1[se]c2ccccc2c1=O)N[C@@H]1OC(CO)[C@H](O)C(O)C1O` (some centres unmarked) [Compound 14], the inhibition at 1 µM on FAK was determined as 13%. For the same compound, the IC50 is 54 µM in the assay with MDA-231 cells (setting [1]) and 66.4 µM in the assay with DU145 cells (setting [2]).

As for `CC(=O)OCC1O[C@@H](NC(=O)CCCn2[se]c3ccccc3c2=O)C(OC(C)=O)C(OC(C)=O)[C@@H]1O[C@@H]1OC(COC(C)=O)[C@H](OC(C)=O)C(OC(C)=O)C1OC(C)=O` (some centres unmarked) [Compound 15], the IC50 in the assay on DU145 cells (setting [2]) was determined as 34.5 µM.

As to `O=C(CCCn1[se]c2ccccc2c1=O)N[C@@H]1OC(CO)[C@@H](O[C@@H]2OC(CO)[C@H](O)C(O)C2O)C(O)C1O` (some centres unmarked) [Compound 16], in the assay with DU145 cells (setting [2]), the IC50 amounted to 39.7 µM.

`CC(=O)OCC1O[C@@H](OC(=O)Cn2[se]c3ccccc3c2=O)C(OC(C)=O)C(OC(C)=O)[C@@H]1OC(C)=O` (some centres unmarked) [Compound 17]: the inhibition at 1 µM at FAK worked out at 51.9%. Also, the IC50 in the assay with MDA-231 cells (setting [1]) stood at 35 µM; with DU145 cells (setting [2]) it was 30.4 µM.

As for `O=c1c2ccccc2[se]n1CCO[C@@H]1OC(CO)[C@@H](O)C(O)C1O` (some centres unmarked) [Compound 18], the IC50 is over 100 µM with MDA-231 cells (setting [1]) and 125 µM in the assay on DU145 cells (setting [2]).

Turning to `CC(=O)OCC1O[C@@H](n2[se]c3ccccc3c2=O)C(OC(C)=O)C(OC(C)=O)[C@@H]1OC(C)=O` (some centres unmarked) [Compound 19], the IC50 amounted to 5.2 µM with MDA-231 cells (setting [1]) and 11.9 µM with DU145 cells (setting [2]).

In the case of `O=C(Cn1[se]c2ccccc2c1=O)N[C@@H]1OC(CO)[C@@H](O)C(O)C1O` (some centres unmarked) [Compound 20], on FAK, the inhibition at 1 µM was found to be 15%. Further, the IC50 with MDA-231 cells (setting [1]) was 550 µM; in the assay with DU145 cells (setting [2]) it was 395 µM.

`CC(=O)OCC1O[C@@H](NC(=O)c2ccc(-n3[se]c4ccccc4c3=O)cc2)C(OC(C)=O)C(OC(C)=O)[C@@H]1OC(C)=O` (some centres unmarked) [Compound 21]: on FAK, the inhibition at 1 µM turned out to be 54%. Further, the IC50 with MDA-231 cells (setting [1]) was 5.5 µM.

For the compound `O=C(N[C@@H]1OC(CO)[C@@H](O)C(O)C1O)c1ccc(-n2[se]c3ccccc3c2=O)cc1` (some centres unmarked) [Compound 22], the inhibition at 1 µM at FAK was determined as 60%. Further, the IC50 in the assay with MDA-231 cells (setting [1]) worked out at 2.7 µM.

Take `O=C(N[C@@H]1OC(CO)[C@H](O)C(O)C1O)c1ccc(-n2[se]c3ccccc3c2=O)cc1` (some centres unmarked) [Compound 23]: the inhibition at 1 µM on FAK was found to be 32%. For the same compound, in the assay with MDA-231 cells (setting [1]), the IC50 came to 12.7 µM.

Take `CC(=O)OCC1O[C@@H](NC(=O)c2ccc(-n3[se]c4ccccc4c3=O)cc2)C(OC(C)=O)C(OC(C)=O)[C@H]1OC(C)=O` (some centres unmarked) [Compound 24]: the inhibition at 1 µM at FAK stood at 72%. In addition, the 50% inhibitory concentration (IC50) in the assay with MDA-231 cells (setting [1]) came out at 15.3 µM.

Regarding `CC(=O)OCC1O[C@@H](Oc2ccc(-n3[se]c4ccccc4c3=O)cc2)C(OC(C)=O)C(OC(C)=O)[C@@H]1OC(C)=O` (some centres unmarked) [Compound 25], the inhibition at 1 µM on FAK was determined as 65%. Further, the IC50 with MDA-231 cells (setting [1]) came to 11.4 µM.

As to `O=c1c2ccccc2[se]n1-c1ccc(O[C@@H]2OC(CO)[C@@H](O)C(O)C2O)cc1` (some centres unmarked) [Compound 26], the inhibition at 1 µM on FAK was determined as 15%. Also, the IC50 in the assay with MDA-231 cells (setting [1]) came out at 4.4 µM.

For the compound `CC(=O)OCC1O[C@@H](NC(=O)c2ccc(-n3[se]c4ccccc4c3=O)cc2)C(OC(C)=O)C(OC(C)=O)[C@@H]1O[C@@H]1OC(COC(C)=O)[C@H](OC(C)=O)C(OC(C)=O)C1OC(C)=O` (some centres unmarked) [Compound 27], the inhibition at 1 µM on FAK came out at 12%. In the assay with MDA-231 cells (setting [1]), the IC50 amounted to 6.8 µM.

As to `CC(=O)OCC1O[C@@H](OC(=O)c2ccc(-n3[se]c4ccccc4c3=O)cc2)C(OC(C)=O)C(OC(C)=O)[C@@H]1OC(C)=O` (some centres unmarked) [Compound 28], the inhibition at 1 µM on FAK was 85%. Also, in the assay on MDA-231 cells (setting [1]), the IC50 was determined as 4.3 µM.

For the compound `CC(=O)OCC1O[C@@H](OC(=O)c2ccc(-n3[se]c4ccccc4c3=O)cc2)C(OC(C)=O)C(OC(C)=O)[C@H]1OC(C)=O` (some centres unmarked) [Compound 29], the inhibition at 1 µM on FAK amounted to 11%. The IC50 with MDA-231 cells (setting [1]) amounted to 3.7 µM.

As to `CC(=O)OCC1O[C@@H](OC(=O)c2ccc(-n3[se]c4ccccc4c3=O)cc2)C(OC(C)=O)C(OC(C)=O)[C@@H]1O[C@@H]1OC(COC(C)=O)[C@H](OC(C)=O)C(OC(C)=O)C1OC(C)=O` (some centres unmarked) [Compound 30], the inhibition at 1 µM on FAK stood at 94%. Further, in the assay on MDA-231 cells (setting [1]), the IC50 turned out to be 2.2 µM.

As to `O=C(OCC1O[C@@H](OC(=O)c2ccc(-n3[se]c4ccccc4c3=O)cc2)C(OC(=O)c2ccccc2)C(OC(=O)c2ccccc2)[C@@H]1OC(=O)c1ccccc1)c1ccccc1` (some centres unmarked) [Compound 31], the inhibition at 1 µM on FAK was determined as 8%. Moreover, in the assay on MDA-231 cells (setting [1]), the IC50 worked out at 22.9 µM.

For the compound “(2,3,4,6-tetra-O-acetyl-β-D-glucopyranosyl)-4-(3-oxo-1,2-benzisoselenazol-2(3H)-yl)benzoate [Compound 10]”, the concentration for half-maximal inhibition (IC50) is 57.5 µM in the assay with MDA-231 cells (MDA-231 cell proliferation) and 30.6 µM in the assay on DU145 cells (96 hours continuous treatment).
